Test results as given in patent US11066378B2, “Caffeic acid derivatives for anti-angiogenesis” (Taipei Medical University, priority 2015, dated 2021).

Assays:
Assay type in all cases: cell-based, human
[1] = tested on: HUVECs; test: Tube formation analysis; conditions: 8 h, 5% FBS, 0.5, 1 and 2 μM, dose-dependent, FIG. 4
Method: The experiments were performed as described previously (Pan et al., 2010). The HUVECs (lx 10^4 cells/well) were seeded on Matrigel-coated wells of a 96-well plate and then incubated with various concentrations (0.5, 1, and 2 μM) of K20E for 8 h. After that, the capillary-like tube formation was observed by light microscopy at 40-fold magnification, and the tube lengths of the capillary mesh were measured to evaluate anti-angiogenic effect of K20E. The tube length of the control group (treated with 5% FBS alone) was defined as 100%.

[2] = tested on: HUVECs; test: Cell cycle analysis by flow cytometry; conditions: 24 h, FIG. 2E
Method: The experiments were performed according to our previous report with minor modifications (Pan et al., 2010). Briefly, the HUVECs (5×10^5 cells/well) were seeded on 6-well plated and harvested after 24 h treatment of K20E (0.5, 1, and 2 μM). Harvested cells were fixed with 70% ice-cold ethanol overnight. Cell pellets were centrifuged (1500 rpm, 5 min, 4° C.) and then re-suspended in 500 μL of DNA staining buffer containing 4 μg/mL propidium iodide, 1% Triton X-100, and 0.5 mg/mL of RNase A. After incubation at 37° C. (water bath) for 30 min in the dark, the cell cycle phase distributions were detected and analyzed by using FACSCanto flow cytometer (BD Biosciences, San Jose, Calif., USA) and ModFit LT Program (Verify Software House, Topsham, Me., USA), respectively.

[3] = tested on: HUVECs; test: Cell viability assay (MTT assay), growth inhibition of HUVECs
Method: Human umbilical vein endothelial cells (HUVECs; #8000) were purchased from the ScienCell Research Laboratories (San Diego, Calif., USA). The cells were seeded on gelatin-coated culture dishes and grown in the commercial endothelial cell medium (#1001; ScienCell) containing 5% fetal bovine serum (FBS; #0025; ScienCell), 30 μg/mL endothelial cell growth supplements (ECGS; #1052; ScienCell), 100 units/mL penicillin G, and 100 μg/mL streptomycin sulfates (#0503; ScienCell). Cells at passage 3-6 were used for experiments. Mouse Lewis lung carcinoma cell line 1 (LLC1; #60050) was bought from the Food Industry Research and Development Institute (Hsinchu, Taiwan) and cultured in Gibco® Dulbecco's modified Eagle's medium (#12800-017; Invitrogen, Carlsbad, Calif., USA) supplemented with 10% FBS (HyClone, Logan, Utah, USA), 4 mM L-glutamine, 1.5 g/L sodium bicarbonate, 100 units/mL penicillin G, and 100 μg/mL streptomycin. All cells were incubated in a humidified 5% CO2 atmosphere at 37° C. and culture media was changed every 2˜3 days.
The experiments were performed according to our previous study with minor modifications (Pan et al., 2010). Briefly, the cells (2×10^4 cells/well) were seeded and grown under normal culture medium for 24 h. After another 24 h of starvation with 0.5% FBS, the cells were treated with several concentrations (1, 2, 4, 8, and 16 μM) of the tested compounds for 24 h and then incubated with 5 mg/mL of MTT (3-[4,5-dimethyl thiazol-2-yl]-2,5-diphenyl tetrazolium bromide) for 2 h. After that, the cells were washed with 1×PBS and then dimethyl sulfoxide (DMSO) was added to each well. Absorbance values at 570 nm were determined for each well using 650 nm as the reference wavelength. The absorbance of the control group (treated with 5% or 10% FBS alone) was defined as 100%.

[4] = tested on: HUVECs; test: Matrigel cell invasion assay; conditions: 0.5 μM, 16 h, FIG. 3B
Method: (§1) For evaluating cell migration, the HUVECs (1×10^5 cells/well) suspended within serum-free culture medium were seeded on inner surface of the upper chamber (ThinCerts™ Cell Culture Inserts with 8 μm pore size; #662638; Greiner Bio-One Inc., Monroe, N.C., USA) placed in the lower chamber (wells of a 24-well plate). For examining the cell invasion, the HUVECs were pre-mixed with equal volume of thawed Matrigel and rapidly seeded on the upper chamber. After 2 h for cell attachment, K20E at different concentrations (0.5, 1, and 2 μM) were added in the upper and the lower chambers, while 5% FBS as a chemoattractant was added in the lower chamber to facilitate cell migration or invasion. After 16 h incubation, the culture medium (or Matrigel) was removed clearly from inside the upper chamber, and the migrated or invasion cells attached on the outer surface of the upper chamber were fixed with 10% formaldehyde for 10 min at RT. The fixed cells were subsequently counterstained with hematoxylin. Relative cell number of each groups was counted from five random regions by light microscopy using a 40-fold magnification. The cell number of the control group (treated with 5% FBS alone) was defined as 100%.

[5] = tested on: HUVECs; test: Transwell cell migration assay; conditions: 0.5 μM, 16 h, FIG. 3A
Method: as §1

COC(=O)/C=C/c1cc(OC(C)=O)c2c(c1)[C@H](C(=O)OC)[C@@H](c1ccc(OC(C)=O)c(OC(C)=O)c1)O2 [K20E]
tube formation of the HUVECs on Matrigel [1]: significantly suppressed | cells in sub-G1 phases (apoptosis) ([2]; 0.5 μM): significantly induce cells in sub-G1 phases (apoptosis) | cell cycle arrest in G2/M phase ([2]; 1 μM): arrest cells in G2/M phase | GI50 ([3]; Homo sapiens, HUVEC, 24 h, MTT assay, 24 h treatment, 5% FBS-stimulated HUVECs): ~7.5 µM | 5% FBS-stimulated cell growth of the HUVECs ([3]; dose-dependent, FIG. 2A): markedly reduced | 5% FBS-induced cell invasion of the HUVECs [4]: largely suppressed | 5% FBS-induced migration of the HUVECs [5]: markedly abolished
